Measurements as given in PMC4667280, “Crystal structure of FadD32, an enzyme essential for mycolic acid biosynthesis in mycobacteria” (Scientific Reports, 2015).

Target: T1, MsFadD32 (full-length FadD32 from M. smegmatis) (Mycolicibacterium smegmatis, UniProt A0R618)
T1 construct: full-length (N-terminal domain 1-483, C-terminal domain 484-630), expressed in E. coli BL21(DE3) as SUMO (SMT3) fusion; crystal of the SUMO fusion
T1 sequence (A0R618 1-630): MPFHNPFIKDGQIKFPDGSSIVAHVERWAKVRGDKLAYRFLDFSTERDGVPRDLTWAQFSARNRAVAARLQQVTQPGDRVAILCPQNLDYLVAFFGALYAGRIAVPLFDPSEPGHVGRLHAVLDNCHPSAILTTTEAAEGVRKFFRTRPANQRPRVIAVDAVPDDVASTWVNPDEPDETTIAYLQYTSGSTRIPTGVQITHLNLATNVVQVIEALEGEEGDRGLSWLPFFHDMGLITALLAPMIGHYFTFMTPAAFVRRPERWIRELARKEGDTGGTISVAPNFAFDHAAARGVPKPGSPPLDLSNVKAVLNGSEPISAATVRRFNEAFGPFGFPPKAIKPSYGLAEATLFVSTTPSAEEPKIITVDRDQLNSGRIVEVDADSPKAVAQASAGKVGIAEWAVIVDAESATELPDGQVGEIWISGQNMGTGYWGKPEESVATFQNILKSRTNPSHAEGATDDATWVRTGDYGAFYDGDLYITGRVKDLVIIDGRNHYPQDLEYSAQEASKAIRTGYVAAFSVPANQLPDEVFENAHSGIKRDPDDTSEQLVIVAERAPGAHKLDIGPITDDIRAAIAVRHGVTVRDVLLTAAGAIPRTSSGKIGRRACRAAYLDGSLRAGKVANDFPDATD
Assay: isothermal titration calorimetry; crystal structure of the complex at […] Å
Type: binding

`Nc1ncnc2c1ncn2[C@@H]1O[C@H](COP(=O)(O)OP(=O)(O)OP(=O)(O)O)[C@@H](O)[C@H]1O` [ATP] showed a Kd of ~36 µM.
